Source: US20080166766A1, “Genetic incorporation of unnatural amino acids into proteins in mammalian cells” (The Scripps Research Institute, priority 2006, published 2008)

Legend:
[1] = tested on: T-REx™ CHO cells; assay: Yield of purified mutant GFP containing unnatural amino acid (pSWAN two-plasmid system); type: cell-based, Chinese hamster; details: pMpa 10 mM, pApa 10 mM, pBpa 1 mM, pAzpa 5 mM, pPpa 1 mM in media, anti-myc column purified
Excerpt: The pMpaRS gene was inserted directly after the non-regulated CMV promoter for efficient and continuous expression of pMpaRS. Another plasmid (pSWAN-GFP37TAG in FIG. 4B) containing both three tandem repeats of the BstRNACUA^Tyr gene and the GFP37TAG gene was also constructed. The gene encoding GFP37TAG was inserted after a Tet-regulated CMV promoter to minimize potential read-through of the nonsense amber codon caused by endogenous amber suppression in mammalian cells. These two plasmids were then assayed for their suppression efficiency. Because both plasmids contain three tandem repeats of the BstRNACUA^Tyr gene, varying the ratio of the two plasmids to increase the suppression level is not expected to change the total amount of the BstRNACUA^Tyr gene transfected into cells. Under optimized transfection conditions (0.5 μg of pSWAN-pMpaRS and 2.5 μg pSWAN-GFP37TAG per 2×10^6 cells), the suppression level is roughly two-fold higher than that using the three plasmids pUC18-3BstRNACUA^Tyr, pcDNA4-pMpaRS, and pcDNA4-GFP37TAG (the suppression level was determined by the number of fluorescent cells). Cells were grown for 1-2 days after induction and kept viable before harvesting. The yield of mutant GFP containing pMpa (GFP-pMpa) was also quantified. In the presence of 10 mM pMpa in the growth media, 1 μg of mutant GFP can be obtained from 2×10^7 adhesive T-REx™ CHO cells.
Transient transfection of T-REx™ CHO and 293 cells with the pSWAN-EcTyrRS variants and pSWAN-GFP37TAG (0.5 μg of pSWAN-EcTyrRS variant and 2.5 μg of pSWAN-GFP37TAG per 2×10^6 cells) all afforded roughly two-fold higher suppression levels than for the three plasmids pUC18-3BstRNACUA^Tyr, pcDNA4-EcTyrRS variant, and pcDNA4-GFP37TAG (with the exception of the pIpa specific variant). Mutant GFPs containing pApa, pBpa, pAzpa or pPpa were also expressed in T-REx™ CHO cells transfected with the pSWAN-EcTyrRS variants and pSWAN-GFP37TAG and grown in media containing the corresponding unnatural amino acid (pApa, 10 mM; pBpa, 1 mM; pAzpa, 5 mM; or pPpa, 1 mM) for 1-2 days, and purified using an anti-myc antibody column. The yields of the mutant proteins containing pApa and pAzpa were close to that for pMpa (˜1 μg per 2×10^7 cells), and the yields of mutant proteins containing pBpa and pPpa were somewhat lower (˜0.7 μg per 2×10^7 cells). Because the expression levels of EcTyrRS variants in T-REx™ CHO cells are similar, the lower yield of the mutant proteins containing pBpa and pPpa may be due to the low concentrations of unnatural amino acids in the media.
pSWAN-EcTyrRS variants and pSWAN-GFP37TAG were used to express mutant GFPs containing unnatural amino acids. T-REx™ CHO cells (Invitrogen™) were grown in 75 cm^2 tissue culture flasks (BD Biosciences) to 80-90% confluency and transfected with 2 μg of pSWAN-EcTyrRS and 10 μg pSWAN-GFP37TAG using […] FuGENE® 6. After overnight incubation, the media were changed to the fresh media containing the unnatural amino acid (pMpa, 10 mM; pApa, 10 mM; pBpa, 1 mM; pAzpa, 5 mM; and pPpa, 1 mM) and 1 μg/ml tetracycline. Cells were then grown for 1-2 days at 37° C. before harvesting, and then lysed with RIPA lysis buffer. The supernatant from the cell lysate was dialyzed against and equilibrated with PBS buffer before loading onto an anti-myc antibody agarose column (Sigma). The column was washed with 15 column volumes of PBS buffer and then eluted with 0.1 M ammonium hydroxide. The purified proteins were neutralized with 0.1 M acetic acid and analyzed by SDS-PAGE. […]

[2] = Decay of azido amino acid seen in tandem MS of mutant GFP; type: physicochemical; details: mutant GFP containing pAzpa; azido group chemically reactive and photo-unstable
Protocol: The mutant GFP containing pAzpa was only weakly detectable. […] The data from all five mutant proteins indicate the high selectivity and fidelity of the incorporation of unnatural amino acids.
(§1) Nano-RP LC/MS/MS was performed with an HPLC pump, autosampler (Agilent Technologies, Palo Alto, Calif.), and an LTQ Orbitrap hybrid mass spectrometer (ThermoElectron, San Jose, Calif.). Tryptic digests were loaded with a pressure bomb onto a 75 μm i.d. precolumn packed with 4 cm of 5-μm Monitor C18 particles (Column Engineering, Ontario, Calif.) at a flow rate of approximately 2 μl/min. The precolumn was then connected to the HPLC pump and after several minutes of washing with solvent A the analytical column with integrated emitter tip (360 μm O.D.×75 μm i.d; 10 cm of 5 μM C18, ˜5-μm tip) was connected in series. The chromatographic profile was from 100% solvent A (0.1% aqueous acetic acid) to 50% solvent B (0.1% acetic acid in acetonitrile) in 40 min; the flow rate through the analytical column was ca. 100 nl/min.

[3] = tested on: position 37 of GFP; assay: Fidelity of unnatural amino acid incorporation by mass spectrometry (nano-RP LC/MS/MS, ESI TOF-MS); details: nano-RP LC/MS/MS of tryptic fragments, mutant GFP from T-REx CHO cells
Excerpt: To further characterize GFP-pMpa, the mutant protein was expressed in T-REx™ CHO cells transiently transfected with both pSWAN-pMpaRS and pSWAN-GFP37TAG. The protein was purified using an anti-myc antibody agarose column and then separated by SDS-PAGE. The GFP-pMpa band from the SDS-PAGE gel was digested with trypsin and analyzed by nanoscale reversed-phase liquid chromatography/mass spectrometry/mass spectrometry (nano-RP LC/MS/MS). In parallel, wild type GFP was purified from cells transfected with pcDNA4-GFP and subjected to the same analysis.
Proteolysis of affinity purified proteins (performed for wild-type and pBpa samples) was carried out by overnight incubation of proteins at 37° C. with sequencing-grade modified trypsin (Promega) using a substrate/enzyme ratio of 10:1 (wt/wt) based on the estimated protein concentration in 100 mM triethylammonium bicarbonate buffer (pH 8.5). In-gel digestions (performed for pMpa, pAzpa, pApa, and pPpa samples) were performed according to a modified EMBL procedure (see the website for EMBL, Heidelberg, Germany, Bioanalytical Research Group). Briefly, gel slices were excised to approximately 1 mm×1 mm cubes, washed for 5 minutes with water, 15 minutes with acetonitrile, and dried in a vacuum centrifuge before being rehydrated at 0° C. for 30 minutes with 12.5 ng/μl of sequencing-grade modified trypsin in 50 mM triethylammonium bicarbonate buffer (pH 8.5). Excess buffer was removed and 20 μl of 50 mM triethylammonium bicarbonate buffer (pH 8.5) was added to the gel slices before incubating at 37° C. overnight. Peptides were extracted from the gel slices as described in the protocol.
as §1
For data-dependent experiments, the mass spectrometer was programmed to first record a high-resolution Orbitrap scan then a full-scan ion trap spectrum (m/z 500-2,000). This was followed by 10 data-dependent MS/MS scans (relative collision energy=35%; 3-Da isolation window) triggered of the ion-trap scan and finally two targeted MS/MS scans. The first targeted MS/MS scan was set to isolate and fragment the doubly charged precursor ion of the predicted unnatural amino acid modified peptide
at m/z 752.3. The raw data were searched against the MSDB database using MASCOT (Matrixscience, London, UK) for protein identification and to find the scans containing the target peptides with the unnatural amino acids as variable modification. To estimate fidelity at Y*37 of GFP-pMpa, single ion chromatograms (doubly charged precursor ions at m/z 752.3 for the wt and 759.3 for pMpa) and selected ion chromatograms (y9, y11, and y12) were integrated using the Xcalibur software package (ThermoElectron, San Jose, Calif.).
Intact protein mass spectra were acquired on an automated LC/MS system (Waters, Milford, Mass.) consisting of a capillary LC with auto-sampler and a QTOF2 mass spectrometer. GFP-pMpa (0.1 mg/ml) was loaded onto a reversed-phase protein Captrap (Michrom Bioresources, Auburn, Calif.) for desalting with 0.1% acetic acid in water and eluted with 80% acetonitrile/0.1% acetic acid at 5 μl/min into the ESI source of the mass spectrometer. […]

[4] = tested on: mammalian cells; assay: Cellular toxicity of heterologous synthetase expression; type: cell-based; details: under the growth conditions used

Row | Molecule | yield of mutant GFP containing the unnatural amino acid [1] [μg per 2×10^7 cells] | decay of the amino acid in mutant GFP (tandem MS) [2] | wild type peptide signals in tandem MS of mutant GFP sample [3] | cellular toxicity of heterologous expression [4]
1 | [N-]=[N+]=Nc1ccc(C[C@H](N)C(=O)O)cc1 [pAzpa, p-azidophenylalanine] | ~1 | Most of pAzpa decays to pAmpa | No wild type signals could be detected | –
2 | pMpaRS: EcTyrRS variant Y37V/D182S/F183M that charges BstRNACUA^Tyr with pMpa (protein, UniProt P0AGJ9 2-424, looked up, variant Y37V D182S F183M) Tyrosine--tRNA ligase: ASSNLIKQLQERGLVAQVTDEEALAERLAQGPIALVCGFDPTADSLHLGHLVPLLCLKRFQQAGHKPVALVGGATGLIGDPSFKAAERKLNTEETVQEWVDKIRKQVAPFLDFDCGENSAIAANNYDWFGNMNVLTFLRDIGKHFSVNQMINKEAVKQRLNREDQGISFTEFSYNLLQGYSMACLNKQYGVVLQIGGSDQWGNITSGIDLTRRLHQNQVFGLTVPLITKADGTKFGKTEGGAVWLDPKKTSPYKFYQFWINTADADVYRFLKFFTFMSIEEINALEEEDKNSGKAPRAQYVLAEQVTRLVHGEEGLQAAKRITECLFSGSLSALSEADFEQLAQDGVPMVEMEKGADLMQALVDSELQPSRGQARKTIASNAITINGEKQSDPEYFFKEEDRLFGRFTLLRRGKKNYCLICWK | – | – | – | did not show any apparent cellular toxicity
